What was measured:
[1] = tested on: acute central retinal artery occlusion; details: sublingual route; cited from earlier work
[2] = tested on: retinal blood flow; details: oral; glaucoma patients and diabetics; Zurakowski 1998, Weigert 2008; cited from earlier work
[3] = tested on: human patients having central serous chorioretinopathy (CSCR); test: Central macular thickness by OCT in CSCR patients given isosorbide dinitrate; format: in vivo
Description: The nitric-oxide releasing agent isosorbide dinitrate was given orally at 5 mg twice per day dosage for sublingual administration for 7 days for 7 human patients (CL, WZ, XC, LL, BZ, XZ, and LS) having central serous chorioretinopathy (CSCR). Average age of the patients is 41.6 years. 5 men and 2 women were enrolled in this study.

Row | SMILES | Treatment outcome in acute central retinal artery occlusion [1] | Retinal blood flow [2] | Central macular OCT thickness, overall change ([3]; 7 human CSCR patients, 5 mg twice per day sublingual for 7 days, 7-10 days after treatment) | Subretinal fluid status after treatment ([3]; patient, eye OD)
1 | O=[N+]([O-])OCC(CO[N+](=O)[O-])O[N+](=O)[O-] [nitroglycerin, 1,2,3-Tris(nitrooxy)propane] | variable success | retinal blood flow improves | – | –
2 | O=[N+]([O-])O[C@H]1CO[C@H]2[C@@H]1OC[C@H]2O[N+](=O)[O-] [isosorbide dinitrate, 1,4:3,6-dianhydro-2,5-di-O-nitro-D-glucitol] | – | – | generalized decrease | fluid resolved)

Reference: patent US20240285572A1 (priority 2023, published 2024)
